Non-standard residues stand in square brackets, D forms with d. Residues, ends and D or L forms follow the SMILES beside them. dPhe(4-Cl) = N[C@H](Cc1ccc(Cl)cc1)C(=O)O; d2Nal = N[C@H](Cc1ccc2ccccc2c1)C(=O)O; dCit = NC(=O)NCCC[C@@H](N)C(=O)O; d3Pal = N[C@H](Cc1cccnc1)C(=O)O
System: skin explant
Test: Inflammatory potential: cytokine assay in culture medium or matrix of injected skin explant
Type: cell-based, human
Conditions: 100 μL CETROTIDE solution, cetrorelix 0.25 mg/l mL, injected into adipose tissue of explant
Description: A CETROTIDE solution of 100 μL with a cetrorelix concentration of 0.25 mg/l mL (luteinizing hormone inhibitor that competes by binding to its receptor) was injected into the adipose tissue of an explant, as described previously, using a syringe and a 12 mm long, 27 G needle. As a negative and positive control, 100 μL of a PBS solution and 100 μL of a concentrated solution of compound 48/80 (50 μg/mL, an MRGPRX2 agonist), respectively, were each injected into the adipose tissue of different explants, as described previously.
The culture medium or matrix supporting the explants are collected and an assay of cytokines is conducted using an ELISA-type methods or any other type of method intended to detect and quantify the presence of cytokines.

CC(=O)N[C@H](Cc1ccc2ccccc2c1)C(=O)N[C@H](Cc1ccc(Cl)cc1)C(=O)N[C@H](Cc1cccnc1)C(=O)N[C@@H](CO)C(=O)N[C@@H](Cc1ccc(O)cc1)C(=O)N[C@H](CCCNC(N)=O)C(=O)N[C@@H](CC(C)C)C(=O)N[C@@H](CCCNC(=N)N)C(=O)N1CCC[C@H]1C(=O)N[C@H](C)C(N)=O [cetrorelix] (Ac-[d2Nal][dPhe(4-Cl)][d3Pal]SY[dCit]LRP[dA]-NH2)
Inflammatory potential (cytokines): confirmed the inflammatory potential

Reference: patent publication US20240280565A1, “EX VIVO HUMAN MODEL INTENDED FOR EVALUATING ALLERGIC OR PSEUDO-ALLERGIC INFLAMMATORY POTENTIAL” (GENOSKIN, priority 2021, published 2024)
